Values quoted from earlier work in patent publication US20220142904A1, “A METHOD OF COLORING KERATINOUS MATERIAL COMPRISING THE USE OF AN ORGANOSILICON COMPOUND, A COLORING COMPOUND, A SEALING REAGENT, AND A MIXTURE OF SILICONES” (Henkel AG & Co. KGaA, priority 2019, published 2022).

Settings: for solubility in water: 25° C.

| solubility in water (in words) (water at 25° C.) | Molecule | solubility in water |
| --- | --- | --- |
|  | O=S(=O)([O-])c1ccc(N=Nc2c(O)ccc3ccccc23)cc1.[Na+] [Acid Orange 7, sodium salt of 4-[(2-hydroxy-1-naphthyl)azo]benzene sulphonate] | more than 7 g/L |
|  | Nc1cc(S(=O)(=O)[O-])cc2cc(S(=O)(=O)[O-])c(N=Nc3ccccc3)c(O)c12.[Na+].[Na+] [Acid Red 33, disodium salt of 5-amino-4-hydroxy-3-(phenylazo)-naphthalene-2,7-disulphonate] | 2.5 mg/mL |
|  | O=C([O-])c1c(Cl)c(Cl)c(Cl)c(Cl)c1-c1c2c(Br)cc(=O)c(Br)c-2oc2c(Br)c(O)cc(Br)c12.O=C([O-])c1c(Cl)c(Cl)c(Cl)c(Cl)c1-c1c2c(Br)cc(=O)c(Br)c-2oc2c(Br)c(O)cc(Br)c12.[Na+].[Na+] [Acid Red 92, disodium salt of 3,4,5,6-tetrachloro-2-(1,4,5,8-tetrabromo-6-hydroxy-3-oxoxanthen-9-yl)benzoic acid] | greater than 10 g/L |
| highly soluble | O=C([O-])C1=NN(c2ccc(S(=O)(=O)[O-])cc2)C(=O)C1N=Nc1ccc(S(=O)(=O)[O-])cc1.[Na+].[Na+].[Na+] (centres unmarked) [Acid Yellow 23, trisodium salt of 4,5-dihydro-5-oxo-1-(4-sulfophenyl)-4-((4-sulfophenyl)azo)-1H-pyrazole-3-carboxylic acid] |  |
|  | sodium salts of mono- and disulfonic acids of 2-(2-quinolyl)-1H-indene-1,3(2H)-dione [Acid Yellow 3] | 20 mg/mL |
